In patent publication US6689792B2, “Antipsychotic indolyl derivatives” (Wyeth, priority 1998, dated 2004):
Structures can show the parent of a compound that is named as a salt.

Experiments:
human 5HT1A receptor = molecular target: T1, human 5HT1A receptor (Homo sapiens, UniProt P08908); assay: [3H] 8-OH-DPAT displacement binding in CHO cells transfected with human 5HT1A receptor; conditions: [3H] 8-OH-DPAT 1.5 nM
T1 construct: expressed in transfected cells
T1 sequence (P08908 1-422): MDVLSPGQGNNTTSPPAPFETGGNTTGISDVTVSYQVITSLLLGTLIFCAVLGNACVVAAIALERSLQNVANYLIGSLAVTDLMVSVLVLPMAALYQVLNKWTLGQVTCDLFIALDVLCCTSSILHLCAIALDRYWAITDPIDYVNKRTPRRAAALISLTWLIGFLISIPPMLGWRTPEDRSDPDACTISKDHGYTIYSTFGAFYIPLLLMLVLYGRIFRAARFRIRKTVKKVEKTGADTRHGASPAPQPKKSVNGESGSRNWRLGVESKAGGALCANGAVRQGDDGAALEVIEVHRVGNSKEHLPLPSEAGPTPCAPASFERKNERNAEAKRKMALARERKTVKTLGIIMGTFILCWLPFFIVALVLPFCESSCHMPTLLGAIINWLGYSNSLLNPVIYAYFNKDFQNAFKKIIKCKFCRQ
Experimental: 8-OH-DPAT binding in CHO cells stabily transfected with human 5HT1A receptor. Stabily transfected CHO cells are grown in DMEM containing 10% heat inactivated FBS and non-essential amino acids. Cells are scraped off the plate, transferred to centrifuge tubes, and washed twice by centrifugation (2000 rpm for 10 min., 4° C.) in buffer (50 mM Tris pH 7.5). The resulting pellets are aliquoted and placed at −80° C. On the day of assay, the cells are thawed on ice and resuspended in buffer. The binding assay is performed in a 96 well microtiter plate in a total volume of 250 μL. […] Following a 30 minute incubation at room temperature, the reaction is terminated by the addition of ice cold buffer and rapid filtration through a GF/B filter presoaked for 30 minutes in 0.5% PEI.

serotonin transporter = molecular target: T2, serotonin transporter (Rattus norvegicus, UniProt P31652); assay: 3H-Paroxetine binding to rat frontal cortical membranes; conditions: read-out: SSRi % Inhibition (rat brain) at 0.1 μM
T2 construct: frontal cortical membranes prepared from male S.D. rats; from tissue; host or cells: frontal cortical membranes of male Sprague-Dawley rats
Experimental: ^3H-Paroxetine binding to assess affinity of drugs for the serotonin transporter
A protocol similar to that used by Cheetham et al. (Neuropharmacol. 32:737, 1993) was used to determine the affinity of compounds for the serotonin transporter. Briefly, frontal cortical membranes prepared from male S.D. rats were incubated with ^3H-paroxetine (0.1 nM) for 60 min at 25° C. All tubes also contained either vehicle, test compound (one to eight concentrations), or a saturating concentration of fluoxetine (10 μM) to define […]. All reactions are terminated by the addition of ice cold Tris buffer followed by rapid filtration using a Tom Tech filtration device to separate bound from free ^3H-paroxetine. Bound radioactivity was quantitated using a Wallac 1205 Beta Plate® counter. Results achieved are expressed below as % inhibition of Paroxetine binding at a given concentration.

[1] = molecular target: T3, human dopamine D2 receptor (Homo sapiens, UniProt P14416); assay: [3H]-Spiperone displacement binding in CHO cells transfected with human dopamine D2 receptor; conditions: [3H]-Spiperone 0.5 nM, CHO cell membranes
T3 construct: expressed in transfected cells
Experimental: CHO cells expressing the human dopamine D2 receptor were cultured in suspension by expansion (every 3-4 days) in a serum free media to provide approximately 7.5×10^5 cells/ml. The cells were harvested by centrifugation (900×g for 10 min.), resuspended in half volume of 1×dulbecco PBS solution at pH 7.4, and after a further recentrifugation, the cell pellet was resuspended in 50 mM Tris.HCl (pH 7.4) containing 1.5 mM CaCl2, 5.0 mM EDTA, 5.0 mM KCl, 120 mM NaCl, 1.0 mM PMSF and 1.0 mg % leupeptin. The cells were homogenized, centrifuged at 40,000×g for 30 minutes and resuspended in fresh buffer (10 ml), and the process repeated twice. […] The binding assay is performed in a 96 well microtiter plate. 100 μl of buffer is added to the wells, and those receiving a displacer for nonspecific binding (NSB) assessment or test compounds receive 80 μl of incubation buffer. […] The reaction is initiated by the addition of 80 μl of the tissue membrane, and after 120 minutes at room temperature the wells are harvested using a Brandell® Harvester onto glass fiber filter presoaked in 0.1% polyethylimine.

T3 sequence (P14416 whole entry): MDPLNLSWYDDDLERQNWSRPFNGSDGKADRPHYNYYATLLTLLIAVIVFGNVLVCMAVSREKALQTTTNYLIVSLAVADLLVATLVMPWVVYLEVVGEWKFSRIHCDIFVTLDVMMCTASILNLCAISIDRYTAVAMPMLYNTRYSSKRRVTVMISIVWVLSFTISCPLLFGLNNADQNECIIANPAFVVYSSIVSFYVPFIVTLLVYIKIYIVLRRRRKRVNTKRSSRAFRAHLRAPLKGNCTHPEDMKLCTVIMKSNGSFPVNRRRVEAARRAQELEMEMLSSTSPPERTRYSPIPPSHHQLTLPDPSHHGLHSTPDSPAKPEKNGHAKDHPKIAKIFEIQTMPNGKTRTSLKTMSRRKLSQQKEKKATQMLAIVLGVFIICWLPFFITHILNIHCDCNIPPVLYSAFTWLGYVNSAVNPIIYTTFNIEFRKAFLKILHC
T2 sequence (P31652 whole entry): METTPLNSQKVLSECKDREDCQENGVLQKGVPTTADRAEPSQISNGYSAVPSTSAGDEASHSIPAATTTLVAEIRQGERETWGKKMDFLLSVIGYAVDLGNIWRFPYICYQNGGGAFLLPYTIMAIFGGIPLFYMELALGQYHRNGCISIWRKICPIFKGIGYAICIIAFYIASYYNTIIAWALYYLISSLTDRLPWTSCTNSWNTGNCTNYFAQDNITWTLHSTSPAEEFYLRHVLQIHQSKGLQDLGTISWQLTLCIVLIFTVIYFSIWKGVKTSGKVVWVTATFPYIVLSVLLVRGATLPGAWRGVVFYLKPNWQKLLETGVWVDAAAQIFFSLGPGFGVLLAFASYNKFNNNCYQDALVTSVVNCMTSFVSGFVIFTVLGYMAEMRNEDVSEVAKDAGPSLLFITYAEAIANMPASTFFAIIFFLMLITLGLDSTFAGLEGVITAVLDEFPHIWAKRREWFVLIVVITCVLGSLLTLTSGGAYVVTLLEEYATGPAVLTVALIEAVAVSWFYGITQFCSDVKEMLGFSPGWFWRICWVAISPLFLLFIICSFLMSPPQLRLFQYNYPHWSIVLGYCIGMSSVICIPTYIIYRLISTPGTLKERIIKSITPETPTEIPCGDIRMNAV

Compound	melting point [°C]	Ki (human 5HT1A receptor) [nM]	inhibition at 0.1 µM (serotonin transporter) [%]	Ki [1] [nM]
O=[N+]([O-])c1ccc(OCC(O)CN2CCN(c3cccc4[nH]ccc34)CC2)cc1 (stereo not shown) (as salt: HCl) [Example 4, 1-[4-(1H-Indol-4-yl)-piperazin-1-yl]-3-(4-nitro-phenoxy)-propan-2-ol]	248			
OC(COc1cccc2[nH]ccc12)CN1CCN(c2cccc3[nH]ccc23)CC1 (stereo not shown) (as salt: fumaric acid salt) [Example 1, 1-(1H-Indol-4-yloxy)-3-[4-(1H-indol-4-yl)piperazin-1-yl]-propan-2-ol]	147 to 150			
OC(COc1ccc(Cl)cc1)CN1CCN(c2cccc3[nH]ccc23)CC1 (stereo not shown) (as salt: fumaric acid salt) [Example 2, 1-(4-Chloro-phenoxy)-3-[4-(1H-indol-4-yl)piperazin-1-yl]-propan-2-ol]	224 to 225			
OC(COc1ccccc1Cl)CN1CCN(c2cccc3[nH]ccc23)CC1 (stereo not shown) (as salt: fumaric acid salt) [Example 5, 1-(2-Chloro-phenoxy)-3-[4-(1H-indol-4-yl)piperazin-1-yl]-propan-2-ol]	207			
OC(COc1ccc(F)cc1)CN1CCN(c2cccc3[nH]ccc23)CC1 (stereo not shown) (as salt: fumaric acid salt) [Example 6, 1-(4-Fluoro-phenoxy)-3-[4-(1H-indol-4-yl)piperazin-1-yl]-propan-2-ol]	234 to 235			
OC(COc1ccccc1-c1ccccc1)CN1CCN(c2cccc3[nH]ccc23)CC1 (stereo not shown) (as salt: fumaric acid salt) [Example 8, 1-(Biphenyl-2-yloxy)-3-[4-(1H-indol-4-yl)piperazin-1-yl]-propan-2-ol]	214 to 215			
OC(COc1cccc2[nH]ccc12)CN1CCN(c2cccc3[nH]ccc23)CC1 (stereo not shown) [Example 1, 1-(1H-Indol-4-yloxy)-3-[4-(1H-indol-4-yl)piperazin-1-yl]-propan-2-ol]		6	32	
OC(COc1ccc(Cl)cc1)CN1CCN(c2cccc3[nH]ccc23)CC1 (stereo not shown) [Example 2, 1-(4-Chloro-phenoxy)-3-[4-(1H-indol-4-yl)piperazin-1-yl]-propan-2-ol]		7.6	13	33.5
COc1ccc(OCC(O)CN2CCN(c3cccc4[nH]ccc34)CC2)cc1 (stereo not shown) [Example 3, 1-[4-(1H-Indol-4-yl)-piperazin-1-yl]-3-(4-methoxy-phenoxy)-propan-2-ol]		1.8	17	
O=[N+]([O-])c1ccc(OCC(O)CN2CCN(c3cccc4[nH]ccc34)CC2)cc1 (stereo not shown) [Example 4, 1-[4-(1H-Indol-4-yl)-piperazin-1-yl]-3-(4-nitro-phenoxy)-propan-2-ol]		8.8	15	
OC(COc1ccccc1Cl)CN1CCN(c2cccc3[nH]ccc23)CC1 (stereo not shown) [Example 5, 1-(2-Chloro-phenoxy)-3-[4-(1H-indol-4-yl)piperazin-1-yl]-propan-2-ol]		12.1	11	31.9
OC(COc1ccc(F)cc1)CN1CCN(c2cccc3[nH]ccc23)CC1 (stereo not shown) [Example 6, 1-(4-Fluoro-phenoxy)-3-[4-(1H-indol-4-yl)piperazin-1-yl]-propan-2-ol]		10.4	0	10.4
NC(=O)c1cc2c(OCC(O)CN3CCN(c4cccc5[nH]ccc45)CC3)cccc2[nH]1 (stereo not shown) [Example 7, 4 {2-Hydroxy-3-[4-(1H-indol-4-yl)-piperazin-1-yl]propoxy}-1H-indole-2-carboxylic acid amide]		7.2	3	
OC(COc1ccccc1-c1ccccc1)CN1CCN(c2cccc3[nH]ccc23)CC1 (stereo not shown) [Example 8, 1-(Biphenyl-2-yloxy)-3-[4-(1H-indol-4-yl)piperazin-1-yl]-propan-2-ol]		4.5	0	
